According to patent US20250340563A1, “FUSED PYRIDAZINE DERIVATIVES AS NLRP3 INHIBITORS” (Takeda Pharmaceutical Company Limited, priority 2022, published 2025):

Columns and labels:
NF-κB pathway = assay: TNF-α assay in IFN-γ-differentiated, LPS-stimulated THP-1 cells (ELISA); format: cell-based; settings: Homo sapiens, 50 ng/mL LPS, 3 hours
Protocol: Monocytic THP-1 cells (ATCC: TIB-202) are maintained in accordance with the provider's instructions in RPMI media (Life Technologies, Cat #A10491-01); RPMI is supplemented with 10% heat inactivated fetal bovine serum (Hyclone Cat #SH30396.03). The cells are differentiated into macrophages by the addition of 25 ng/mL IFN-γ for 24 hours at 37° C./5% CO2. Media is exchanged with fresh media with no FBS. The cells are plated at 40,000 cells per well in 384-well flat-bottom cell culture plates (Costar 3764) containing compounds (added in 1:1000) in a 1:3.16 serial dilution series in DMSO and are incubated for 30 minutes at 37° C./5% CO2. The NF-κB pathway is activated with the addition of 50 ng/mL LPS and the cells are incubated for 3 hours at 37° C./5% CO2. At the end of the incubation period, supernatant (40 μL) is removed, and […] are monitored using an ELISA (Human TNF-α ELISA, R&D systems, Cat #DY210) according to the manufacturer's instructions.
The IC50 values are calculated from a plot of percentage of inhibition versus the inhibitor concentration by a logistics curve fit according to: Y=[Bottom+(Top−Bottom)]/(1+10^[(Log IC50−X)·Hill Slope], where Y is the % inhibition at the inhibitor concentration, X, “Bottom” is the lowest inhibition value, i.e. 0%, “Top” is the maximum inhibition value, i.e. 100%, and the “Hill Slope” describes the slope of the sigmoidal curve between the “Bottom” and “Top” values. The curve fitting was conducted with internally developed software.

NLRP3 inflammasome = NLRP3 inflammasome (Homo sapiens, UniProt Q96P20); assay: IL-1β assay in IFN-γ-differentiated, LPS-primed, ATP-activated THP-1 cells (ELISA); format: cell-based; settings: 50 ng/mL LPS priming, 2.5 mM ATP activation, 2 hours
Summary of the method: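 THP-1 cells differentiated with 25 ng/mL IFN-γ for 24 h, then primed with 50 ng/mL LPS for 24 h in serum-free medium. After 30 min compound preincubation (1:3.16 dilution series), inflammasome activated with 2.5 mM ATP for 2 h at 37 °C. Supernatant IL-1β measured by ELISA; IC50 from logistic fit of % inhibition.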

NLRP3 inflammasome, sequence (Q96P20 whole entry): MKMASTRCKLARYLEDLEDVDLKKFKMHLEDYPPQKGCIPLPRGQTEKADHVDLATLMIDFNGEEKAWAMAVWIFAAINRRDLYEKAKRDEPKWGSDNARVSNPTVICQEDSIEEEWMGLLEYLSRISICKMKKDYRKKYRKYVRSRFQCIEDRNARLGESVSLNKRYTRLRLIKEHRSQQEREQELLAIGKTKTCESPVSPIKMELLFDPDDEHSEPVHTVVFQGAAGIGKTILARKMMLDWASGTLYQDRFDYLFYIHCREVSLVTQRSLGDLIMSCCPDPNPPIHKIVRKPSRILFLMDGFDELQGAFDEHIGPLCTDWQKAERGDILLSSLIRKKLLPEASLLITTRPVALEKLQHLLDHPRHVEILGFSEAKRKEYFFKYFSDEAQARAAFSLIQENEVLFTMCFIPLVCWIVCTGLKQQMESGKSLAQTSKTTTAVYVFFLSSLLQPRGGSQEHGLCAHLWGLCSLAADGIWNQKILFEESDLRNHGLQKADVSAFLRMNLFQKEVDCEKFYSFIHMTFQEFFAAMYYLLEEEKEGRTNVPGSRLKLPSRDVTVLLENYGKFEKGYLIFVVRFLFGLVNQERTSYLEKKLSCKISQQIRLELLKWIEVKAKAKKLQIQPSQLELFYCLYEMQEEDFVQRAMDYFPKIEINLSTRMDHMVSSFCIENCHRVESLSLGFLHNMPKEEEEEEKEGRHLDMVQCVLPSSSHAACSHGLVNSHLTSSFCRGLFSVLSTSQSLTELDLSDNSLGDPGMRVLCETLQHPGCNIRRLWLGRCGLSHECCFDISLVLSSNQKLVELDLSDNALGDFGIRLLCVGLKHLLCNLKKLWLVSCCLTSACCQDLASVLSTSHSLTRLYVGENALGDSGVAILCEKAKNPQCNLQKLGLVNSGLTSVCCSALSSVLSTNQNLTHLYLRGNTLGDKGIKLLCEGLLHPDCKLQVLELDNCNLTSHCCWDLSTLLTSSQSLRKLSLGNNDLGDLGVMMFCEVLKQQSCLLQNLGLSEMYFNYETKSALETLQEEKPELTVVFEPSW

Row | Compound | IC50 (NF-κB pathway) | IC50 (NLRP3 inflammasome)
1 | Cc1cc(Cl)ccc1-c1nnc(NC2CCCN(C)C2)c2ccccc12 (stereo not drawn) [Example 46, 4-(4-chloro-2-methylphenyl)-N-(1-methylpiperidin-3-yl)phthalazin-1-amine] | > 30 µM | 113 nM
2 | COc1ccc(-c2nnc(N[C@@H]3CCCN(C)C3)c3c(C)cccc23)cc1 [Example 56, (R)-4-(4-methoxyphenyl)-8-methyl-N-(1-methylpiperidin-3-yl)phthalazin-1-amine] | > 30 µM | 72 nM
3 | COc1ccc(-c2nnc(N[C@@H]3CCCN(CCF)C3)c3ccccc23)cc1 [Example 58, (R)—N-(1-(2-fluoroethyl)piperidin-3-yl)-4-(4-methoxyphenyl)phthalazin-1-amine] | > 30 µM | 66 nM
4 | Oc1cc(Cl)ccc1-c1nnc(N[C@@H]2CCCN(CCF)C2)c2ccccc12 [Example 59, (R)-5-chloro-2-(4-((1-(2-fluoroethyl)piperidin-3-yl)amino)phthalazin-1-yl)phenol] | > 30 µM | 2 nM
5 | Oc1ccccc1-c1nnc(N[C@@H]2CCCN(CCF)C2)c2ccccc12 [Example 60, (R)-2-(4-((1-(2-fluoroethyl)piperidin-3-yl)amino)phthalazin-1-yl)phenol] | 21.4 µM | 27 nM
6 | CN1CCC[C@@H](Nc2nnc(-c3ccc(Cl)cc3)c3ccncc23)C1 [Example 64, (R)-1-(4-chlorophenyl)-N-(1-methylpiperidin-3-yl)pyrido[3,4-d]pyridazin-4-amine] | > 30 µM | 58 nM
7 | CN1CCC[C@@H](Nc2nnc(-c3ccc(Cl)cc3)c3cnccc23)C1 [Example 67, (R)-4-(4-chlorophenyl)-N-(1-methylpiperidin-3-yl)pyrido[3,4-d]pyridazin-1-amine] | > 30 µM | 552 nM
8 | CN1CCCC(Nc2nnc(-c3ccc(Cl)cc3F)c3ccncc23)C1 (stereo not drawn) [Example 68, 1-(4-chloro-2-fluorophenyl)-N-(1-methylpiperidin-3-yl)pyrido[3,4-d]pyridazin-4-amine] | > 30 µM | 46 nM
9 | CN1CCC[C@@H](Nc2nnc(-c3ccc(Cl)cc3F)c3ccncc23)C1 [Example 71, (R)-1-(4-chloro-2-fluorophenyl)-N-(1-methylpiperidin-3-yl)pyrido[3,4-d]pyridazin-4-amine] | 9.55 µM | 46 nM
10 | COc1ccc(-c2nnc(NC3CCCN(C)C3)c3cnccc23)cc1 (stereo not drawn) [Example 72, 1-(4-methoxyphenyl)-N-(1-methylpiperidin-3-yl)pyrido[3,4-d]pyridazin-4-amine] | > 30 µM | 52 nM
11 | COc1ccc(-c2nnc(NC3CCCN(C)C3)c3ccncc23)cc1 (stereo not drawn) [Example 73, 4-(4-methoxyphenyl)-N-(1-methylpiperidin-3-yl)pyrido[3,4-d]pyridazin-1-amine] | > 30 µM | 270 nM
12 | CN1CCC[C@@H](Nc2nnc(-c3ccc(Cl)cc3O)c3ccncc23)C1 [Example 74, (R)-5-chloro-2-(4-((1-methylpiperidin-3-yl)amino)pyrido[3,4-d]pyridazin-1-yl)phenol] | > 30 µM | 4 nM
13 | CN1CCC[C@@H](Nc2nnc(-c3ccc(Cl)cc3O)c3cnccc23)C1 [Example 75, (R)-5-chloro-2-(1-((1-methylpiperidin-3-yl)amino)pyrido[3,4-d]pyridazin-4-yl)phenol] | > 30 µM | 3 nM
14 | Cc1nccc2c(-c3ccc(Cl)cc3)nnc(NC3CCCN(C)C3)c12 (stereo not drawn) [Example 76, 1-(4-chlorophenyl)-5-methyl-N-(1-methylpiperidin-3-yl)pyrido[3,4-d]pyridazin-4-amine] | > 30 µM | 178 nM
15 | COc1ccc(-c2nnc(N[C@@H]3CCCN(C)C3)c3ccnc(C)c23)c(O)c1 [Example 79, (R)-5-methoxy-2-(5-methyl-1-((1-methylpiperidin-3-yl)amino)pyrido[3,4-d]pyridazin-4-yl)phenol] | 24.3 µM | 5 nM
16 | Cc1cc2c(-c3ccc(Cl)cc3)nnc(NC3CCCN(C)C3)c2cn1 (stereo not drawn) [Example 80, 1-(4-chlorophenyl)-7-methyl-N-(1-methylpiperidin-3-yl)pyrido[3,4-d]pyridazin-4-amine] | > 30 µM | 36 nM
17 | Cc1cc2c(NC3CCCN(C)C3)nnc(-c3ccc(Cl)cc3)c2cn1 (stereo not drawn) [Example 81, 4-(4-chlorophenyl)-7-methyl-N-(1-methylpiperidin-3-yl)pyrido[3,4-d]pyridazin-1-amine] | > 30 µM | 67 nM

Row | Compound | IC50 (NF-κB pathway) | IC50 (NLRP3 inflammasome)
18 | COc1cc2c(NC3CCCN(C)C3)nnc(-c3ccc(Cl)cc3)c2cn1 (stereo not drawn) [Example 82, 4-(4-chlorophenyl)-7-methoxy-N-(1-methylpiperidin-3-yl)pyrido[3,4-d]pyridazin-1-amine] | > 10 µM | 95 nM
19 | COc1cc2c(-c3ccc(Cl)cc3)nnc(NC3CCCN(C)C3)c2cn1 (stereo not drawn) [Example 83, 1-(4-chlorophenyl)-7-methoxy-N-(1-methylpiperidin-3-yl)pyrido[3,4-d]pyridazin-4-amine] | > 30 µM | 82 nM
20 | COc1ccc(-c2nnc(N[C@@H]3CCCN(CCF)C3)c3cnccc23)cc1 [Example 84, (R)—N-(1-(2-fluoroethyl)piperidin-3-yl)-1-(4-methoxyphenyl)pyrido[3,4-d]pyridazin-4-amine] | > 30 µM | 79 nM
21 | Oc1cc(Cl)ccc1-c1nnc(N[C@@H]2CCCN(CCF)C2)c2cnccc12 [Example 85, (R)-5-chloro-2-(4-((1-(2-fluoroethyl)piperidin-3-yl)amino)pyrido[3,4-d]pyridazin-1-yl)phenol] | > 30 µM | 2 nM
22 | Oc1ccccc1-c1nnc(N[C@@H]2CCCN(CCF)C2)c2cnccc12 [Example 86, (R)-2-(4-((1-(2-fluoroethyl)piperidin-3-yl)amino)pyrido[3,4-d]pyridazin-1-yl)phenol] | > 30 µM | 21 nM
23 | COc1ccc(-c2nnc(N[C@@H]3CCCN(CCF)C3)c3cnccc23)c(F)c1 [Example 87, (R)-1-(2-fluoro-4-methoxyphenyl)-N-(1-(2-fluoroethyl)piperidin-3-yl)pyrido[3,4-d]pyridazin-4-amine] | > 30 µM | 33 nM
24 | Clc1ccc(-c2nnc(NC3CCCN(C4CC4)C3)c3cnccc23)cc1 (stereo not drawn) [Example 88, 1-(4-chlorophenyl)-N-(1-cyclopropylpiperidin-3-yl)pyrido[3,4-d]pyridazin-4-amine] | > 30 µM | 8 nM
25 | Clc1ccc(-c2nnc(NC3CCCN(C4CC4)C3)c3ccncc23)cc1 (stereo not drawn) [Example 89, 4-(4-chlorophenyl)-N-(1-cyclopropylpiperidin-3-yl)pyrido[3,4-d]pyridazin-1-amine] | > 30 µM | 91 nM
26 | CN1CCC[C@@H](Nc2nnc(-c3ccc(F)cc3O)c3ccncc23)C1 [Example 93, (R)-5-fluoro-2-(4-((1-methylpiperidin-3-yl)amino)pyrido[3,4-d]pyridazin-1-yl)phenol] | > 30 µM | 30 nM
27 | C[C@]1(O)C[C@@H](Nc2nnc(-c3ccc(Cl)cc3O)c3ccncc23)C1 [Example 95, cis-5-chloro-2-(4-((-3-hydroxy-3-methylcyclobutyl)amino)pyrido[3,4-d]pyridazin-1-yl)phenol] | > 30 µM | 10 nM
28 | Oc1cc(Cl)ccc1-c1nnc(NC23CCC(O)(CC2)C3)c2cnccc12 [Example 96, 4-((1-(4-chloro-2-hydroxyphenyl)pyrido[3,4-d]pyridazin-4-yl)amino)bicyclo[2.2.1]heptan-1-ol] | 26 µM | 5 nM
29 | CN1CCCC(Nc2nnc(-c3ccc(Cl)cc3)c3ccccc23)C1=O (stereo not drawn) [Example 111, 3-((4-(4-chlorophenyl)phthalazin-1-yl)amino)-1-methylpiperidin-2-one] | > 30 µM | 3780 nM
30 | CN1CCCC(Nc2nnc(-c3ccc(Cl)cc3)c3ccccc23)C1 (stereo not drawn) [Example 113, 4-(4-chlorophenyl)-N-(1-methylpiperidin-3-yl)phthalazin-1-amine] | > 30 µM | 47 nM
31 | C[C@]1(O)C[C@@H](Nc2nnc(-c3ccc(Cl)cc3)c3ccccc23)C1 [Example 118, cis-3-((4-(4-chlorophenyl)phthalazin-1-yl)amino)-1-methylcyclobutan-1-ol] | > 30 µM | 334 nM
32 | O[C@H]1C[C@@H](Nc2nnc(-c3ccc(Cl)cc3)c3ccccc23)C1 [Example 122, cis-3-((4-(4-chlorophenyl)phthalazin-1-yl)amino)cyclobutan-1-ol] | > 30 µM | 2300 nM
33 | COc1ccc(-c2nnc(NC3CCCN(C)C3)c3ccccc23)cc1 (stereo not drawn) [Example 123, 4-(4-methoxyphenyl)-N-(1-methylpiperidin-3-yl)phthalazin-1-amine] | > 30 µM | 276 nM
